Results: patent publication US5681832A, “Aroylaniline compounds, pharmaceutical compositions, and methods of using same to inhibit viral activity” (priority 1995, dated 1997)
Structures can show the parent of a compound that is named as a salt.

Columns and labels:
HIV-1 = test: in vitro anti-HIV screening (NCI XTT soluble-formazan assay, protection of HIV-1-infected CEM T4 lymphocytes from cytolysis); assay type: cell-based; settings: for EC50: 144 h, HIV-1-infected CEM cells, 6 days, approximate values, read-out: EC50 (Molar), 50% effective concentration; for TI50 (IC/EC), therapeutic index: IC50/EC50; for Conclusion: NCI anti-HIV screen
Excerpt: The aroylaniline compounds of the present invention were subjected to in vitro screening to determine their anti-HIV activity.
The National Cancer Institute's procedure for testing for agents active against Human Immunodeficiency Virus (HIV) (Weislow, O. W. et al., "New soluble-formazan assay for HIV-1 cytopathic effects: application to high-flux screening of synthetic and natural products for AIDS-antiviral activity," J. Natl Cancer Inst., 81, 577-586 (1989)) is designed to detect agents acting at any stage of the virus reproductive cycle. The assay includes the killing of T4 lymphocytes by HIV. Pursuant to the test, small amounts of HIV are added to cells, and a complete cycle of virus reproduction is necessary to obtain the required cell killing. Agents that interact with virions, cells, or virus gene-products to interfere with viral activities will protect cells from cytolysis. The system is thus designed to detect anti-HIV activity. However, compounds that are chemically labile or are rapidly metabolized in the culture conditions may not show activity in this screen. All tests are compared with at least one positive (e.g., AZT-treated) control done at the same time under identical conditions.
(§1) 1. Candidate agent is dissolved in dimethyl sulfoxide (unless otherwise instructed) and then diluted 1:100 in cell culture medium before preparing serial half-log10 dilutions which are then to 96-well microfilter plates. T4 lymphocytes (CEM cell line) are added, and after a brief interval HIV-1 is added to all wells, resulting in a 1:200 final dilution […]. Uninfected cells with the compound serve as a toxicity control, and infected and uninfected cells without the compound serve as basic controls.
(§2) 2. Cultures are incubated at 37° C. in a 5% carbon dioxide atmosphere for 6 days.
(§3) 3. The tetrazolium salt, XTT, is added to all wells, and cultures are incubated to allow formazan color development by viable cells.
(§4) 4. Individual wells are analyzed spectrophotometrically to quantitate formazan production, and in addition are viewed microscopically for detection of viable cells and confirmation of protective activity.
(§5) 5. Drug-tested virus-infected cells are compared with drug-treated noninfected cells and with other appropriate controls (untreated infected and untreated noninfected cells, drug-containing wells without cells, etc.) on the same plate.
6. Data are reviewed in comparison with other tests done at the same time and a determination about activity is made.
The aroylaniline compounds of the present invention were tested for anti-HIV activity according to the above procedure. FIGS. 1-6 represent test results of the aroylaniline compounds of Compounds 1, 3, 13, 14, 29 and 32.
(§6) FIGS. 1 to 6 display a plot of the log10 of the concentrations (as μg/mL or molar as shown) of the aroylaniline compounds, Compounds 1, 3, 13, 14, 29 and 32, against the measured test values expressed as a percentage of the uninfected, untreated control values. The solid line depicts the percentage of surviving HIV-infected cells treated with sample (at the indicated concentration) relative to uninfected, untreated controls. Thus, the solid line expresses the anti-HIV activity of the compound. The dashed line depicts the percentage of surviving uninfected cells treated with the compound relative to the same uninfected, untreated controls. Thus, the dashed line expresses the growth inhibitory properties of the compound. The viral cytopathic effect […] is indicated by a dotted reference line. […] Survival values of this parameter less than 50% are considered acceptable in the current protocol. Approximate values for 50% effective concentration (EC50) have been calculated for each test and are set forth for these Compounds in Tables 2-7, respectively.

[1] = tested on: T4 lymphocytes (CEM cell line); test: toxicity control: survival of uninfected T4 lymphocytes (CEM cell line) treated with compound (growth inhibition); assay type: cell-based; settings: Homo sapiens, CCRF-CEM; for IC50: 144 h, uninfected CEM cells, 6 days, read-out: IC50 (Molar)
Experimental: as §1, §2, §3, §4, §5, §6

[2] = Human immunodeficiency virus 1, CCRF-CEM

`O=C(Nc1ccc(C=Cc2ccc(NC(=O)c3cc(S(=O)(=O)O)c4cccnc4c3O)cc2S(=O)(=O)O)c(S(=O)(=O)O)c1)c1cc(S(=O)(=O)O)c2cccnc2c1O` [Compound 1, 4,4'-di(8-hydroxy-5-sulfo-7-quinolinecarboxyamido)stilbene-2,2'disulfonic acid tetrasodium salt] was tested, and the EC50 (HIV-1; [2]) was 1.44 µM, the inhibition at 200 µM (HIV-1; Human immunodeficiency virus 1, CCRF-CEM, 2.00 × 10^-4 Molar, read-out: Percent of Protection) was -26% and the inhibition at 20 µM (HIV-1; Human immunodeficiency virus 1, CCRF-CEM, 2.00 × 10^-5 Molar, read-out: Percent of Protection) was 107%. For the same molecule, the inhibition at 2 µM (HIV-1; Human immunodeficiency virus 1, CCRF-CEM, 2.00 × 10^-6 Molar, read-out: Percent of Protection) was 68.6%, the inhibition at 0.2 µM (HIV-1; Human immunodeficiency virus 1, CCRF-CEM, 2.00 × 10^-7 Molar, read-out: Percent of Protection) was 5.09% and the inhibition at 63.2 µM (HIV-1; Human immunodeficiency virus 1, CCRF-CEM, 6.32 × 10^-5 Molar, read-out: Percent of Protection) was 85.6%. The inhibition at 6.33 µM (HIV-1; Human immunodeficiency virus 1, CCRF-CEM, 6.33 × 10^-6 Molar, read-out: Percent of Protection) was 121%, the inhibition at 0.634 µM (HIV-1; Human immunodeficiency virus 1, CCRF-CEM, 6.34 × 10^-7 Molar, read-out: Percent of Protection) was 3.41% and the inhibition at 0.0635 µM (HIV-1; Human immunodeficiency virus 1, CCRF-CEM, 6.35 × 10^-8 Molar, read-out: Percent of Protection) was -5.09%. For the same molecule, the activity at 200 µM (HIV-1; Human immunodeficiency virus 1, CEM-T4, 2.00 × 10^-4 Molar, read-out: Percent of Control, Infected) was 4.26%, the activity at 20 µM (HIV-1; Human immunodeficiency virus 1, CEM-T4, 2.00 × 10^-5 Molar, read-out: Percent of Control, Infected) was 105% and the activity at 2 µM (HIV-1; Human immunodeficiency virus 1, CEM-T4, 2.00 × 10^-6 Molar, read-out: Percent of Control, Infected) was 76.2%. It also gave an activity at 0.2 µM (HIV-1; Human immunodeficiency virus 1, CEM-T4, 2.00 × 10^-7 Molar, read-out: Percent of Control, Infected) of 27.9%, an activity at 63.2 µM (HIV-1; Human immunodeficiency virus 1, CEM-T4, 6.32 × 10^-5 Molar, read-out: Percent of Control, Infected) of 89.1% and an activity at 6.33 µM (HIV-1; Human immunodeficiency virus 1, CEM-T4, 6.33 × 10^-6 Molar, read-out: Percent of Control, Infected) of 116%. The activity at 0.634 µM (HIV-1; Human immunodeficiency virus 1, CEM-T4, 6.34 × 10^-7 Molar, read-out: Percent of Control, Infected) was 26.6%, the activity at 0.0635 µM (HIV-1; Human immunodeficiency virus 1, CEM-T4, 6.35 × 10^-8 Molar, read-out: Percent of Control, Infected) was 20.1% and the “TI50 (IC/EC), therapeutic index” value (HIV-1) was 8.28 × 10^+1. The Conclusion (HIV-1) was “CONFIRMED ACTIVE”, the IC50 [1] was 120 µM and the activity at 200 µM ([1]; 2.00 × 10^-4 Molar, read-out: Percent of Control, Uninfected) was 6.47%. It also gave an activity at 20 µM ([1]; 2.00 × 10^-5 Molar, read-out: Percent of Control, Uninfected) of 109%, an activity at 2 µM ([1]; 2.00 × 10^-6 Molar, read-out: Percent of Control, Uninfected) of 106% and an activity at 0.2 µM ([1]; 2.00 × 10^-7 Molar, read-out: Percent of Control, Uninfected) of 102%. It also gave an activity at 63.2 µM ([1]; 6.32 × 10^-5 Molar, read-out: Percent of Control, Uninfected) of 104%, an activity at 6.33 µM ([1]; 6.33 × 10^-6 Molar, read-out: Percent of Control, Uninfected) of 117% and an activity at 0.634 µM ([1]; 6.34 × 10^-7 Molar, read-out: Percent of Control, Uninfected) of 105%. For the same molecule, the activity at 0.0635 µM ([1]; 6.35 × 10^-8 Molar, read-out: Percent of Control, Uninfected) was 97.6%.

Molecule `O=C(Nc1ccc(/C=C/c2ccc(NC(=O)c3cc(S(=O)(=O)O)c4cccnc4c3O)cc2S(=O)(=O)O)c(S(=O)(=O)O)c1)Nc1ccc(/C=C/c2ccc(NC(=O)c3cc(S(=O)(=O)O)c4cccnc4c3O)cc2S(=O)(=O)O)c(S(=O)(=O)O)c1` [Compound 3, 1,3-di[2,2'-disulfo-4(8-hydroxy-5-sulfo-7-quinoline)]stilbene urea, hexasodium salt] has an EC50 (HIV-1; [2]) of 4.06 µM, an inhibition at 15.8 µM (HIV-1; Human immunodeficiency virus 1, CCRF-CEM, 1.58 × 10^-5 Molar, read-out: Percent of Protection) of 92.9% and an inhibition at 1.58 µM (HIV-1; Human immunodeficiency virus 1, CCRF-CEM, 1.58 × 10^-6 Molar, read-out: Percent of Protection) of 0.19%. It also gave an inhibition at 0.158 µM (HIV-1; Human immunodeficiency virus 1, CCRF-CEM, 1.58 × 10^-7 Molar, read-out: Percent of Protection) of -1.29%, an inhibition at 0.0158 µM (HIV-1; Human immunodeficiency virus 1, CCRF-CEM, 1.58 × 10^-8 Molar, read-out: Percent of Protection) of 0.19% and an inhibition at 50 µM (HIV-1; Human immunodeficiency virus 1, CCRF-CEM, 5.00 × 10^-5 Molar, read-out: Percent of Protection) of 90.8%. For the same molecule, the inhibition at 5 µM (HIV-1; Human immunodeficiency virus 1, CCRF-CEM, 5.00 × 10^-6 Molar, read-out: Percent of Protection) was 61.1%, the inhibition at 0.501 µM (HIV-1; Human immunodeficiency virus 1, CCRF-CEM, 5.01 × 10^-7 Molar, read-out: Percent of Protection) was 2% and the inhibition at 0.0502 µM (HIV-1; Human immunodeficiency virus 1, CCRF-CEM, 5.02 × 10^-8 Molar, read-out: Percent of Protection) was 0.51%. The activity at 15.8 µM (HIV-1; Human immunodeficiency virus 1, CEM-T4, 1.58 × 10^-5 Molar, read-out: Percent of Control, Infected) was 93.2%, the activity at 1.58 µM (HIV-1; Human immunodeficiency virus 1, CEM-T4, 1.58 × 10^-6 Molar, read-out: Percent of Control, Infected) was 4.18% and the activity at 0.158 µM (HIV-1; Human immunodeficiency virus 1, CEM-T4, 1.58 × 10^-7 Molar, read-out: Percent of Control, Infected) was 2.76%. For the same molecule, the activity at 0.0158 µM (HIV-1; Human immunodeficiency virus 1, CEM-T4, 1.58 × 10^-8 Molar, read-out: Percent of Control, Infected) was 4.18%, the activity at 50 µM (HIV-1; Human immunodeficiency virus 1, CEM-T4, 5.00 × 10^-5 Molar, read-out: Percent of Control, Infected) was 91.1% and the activity at 5 µM (HIV-1; Human immunodeficiency virus 1, CEM-T4, 5.00 × 10^-6 Molar, read-out: Percent of Control, Infected) was 62.7%. The activity at 0.501 µM (HIV-1; Human immunodeficiency virus 1, CEM-T4, 5.01 × 10^-7 Molar, read-out: Percent of Control, Infected) was 5.92%, the activity at 0.0502 µM (HIV-1; Human immunodeficiency virus 1, CEM-T4, 5.02 × 10^-8 Molar, read-out: Percent of Control, Infected) was 4.49% and the “TI50 (IC/EC), therapeutic index” value (HIV-1) was > 1.23 × 10^+1. For the same molecule, the Conclusion (HIV-1) was “CONFIRMED ACTIVE”, the IC50 [1] was over 50 µM and the activity at 15.8 µM ([1]; 1.58 × 10^-5 Molar, read-out: Percent of Control, Uninfected) was 103%. It also gave an activity at 1.58 µM ([1]; 1.58 × 10^-6 Molar, read-out: Percent of Control, Uninfected) of 95.7%, an activity at 0.158 µM ([1]; 1.58 × 10^-7 Molar, read-out: Percent of Control, Uninfected) of 94.4% and an activity at 0.0158 µM ([1]; 1.58 × 10^-8 Molar, read-out: Percent of Control, Uninfected) of 111%. It also gave an activity at 50 µM ([1]; 5.00 × 10^-5 Molar, read-out: Percent of Control, Uninfected) of 98%, an activity at 5 µM ([1]; 5.00 × 10^-6 Molar, read-out: Percent of Control, Uninfected) of 97% and an activity at 0.501 µM ([1]; 5.01 × 10^-7 Molar, read-out: Percent of Control, Uninfected) of 97.7%. For the same molecule, the activity at 0.0502 µM ([1]; 5.02 × 10^-8 Molar, read-out: Percent of Control, Uninfected) was 95.8%.
